Results from PMC5218480 (PLoS ONE, 2017).

Tested on: MV-4-11 cells
Assay: Gene expression microarray analysis (Affymetrix PrimeView) and GSEA
Assay type: cell-based, human
Set-up: RFU PODN (11730768_x_at) / Fold change /veh PODN (11730768_x_at) / RFU LINC00158 (11744669_a_at) / Fold change /veh LINC00158 (11744669_a_at) / RFU DUSP10 (11751237_a_at) / Fold change /veh DUSP10 (11751237_a_at) / RFU ID3 (11757404_x_at) / Fold change /veh ID3 (11757404_x_at) / RFU PLEKHG5 (11737974_s_at) / Fold change /veh PLEKHG5 (11737974_s_at) / RFU LRRC4B (11730491_at) / Fold change /veh LRRC4B (11730491_at) / RFU GIMAP4 (11747438_a_at) / Fold change /veh GIMAP4 (11747438_a_at) / RFU KRT8 (11758183_x_at) / Fold change /veh KRT8 (11758183_x_at) / RFU CNN1 (11734310_a_at) / Fold change /veh CNN1 (11734310_a_at) / RFU VPS37D (11726825_at) / Fold change /veh VPS37D (11726825_at) / RFU C10orf10 (11716522_x_at) / Fold change /veh C10orf10 (11716522_x_at) / RFU KIR2DL2 /// KIR2DL4 /// KIR2DL5A /// KIR2DL5B /// KIR2DS1 /// KIR2DS2 /// KIR2DS3 /// KIR2DS4 /// KIR3DL3 /// KIR3DL3 /// KIR3DS1 (11738374_at) / Fold change /veh KIR2DL2 /// KIR2DL4 /// KIR2DL5A /// KIR2DL5B /// KIR2DS1 /// KIR2DS2 /// KIR2DS3 /// KIR2DS4 /// KIR3DL3 /// KIR3DL3 /// KIR3DS1 (11738374_at) / RFU C1QL1 (11718748_at) / Fold change /veh C1QL1 (11718748_at) / RFU TMPRSS4 (11747572_a_at) / Fold change /veh TMPRSS4 (11747572_a_at) / RFU HAMP (11756126_x_at) / Fold change /veh HAMP (11756126_x_at) / RFU RNFT2 (11725882_a_at) / Fold change /veh RNFT2 (11725882_a_at) / RFU NR4A2 (11747474_a_at) / Fold change /veh NR4A2 (11747474_a_at) / RFU ABCC12 (11746883_a_at) / Fold change /veh ABCC12 (11746883_a_at) / RFU TMEM136 (11760407_x_at) / Fold change /veh TMEM136 (11760407_x_at) / RFU CLDN22 /// WWC2 (11732394_at) / Fold change /veh CLDN22 /// WWC2 (11732394_at) / RFU HLA-DPB1 (11760878_x_at) / Fold change /veh HLA-DPB1 (11760878_x_at) / RFU SPINT1 (11716480_a_at) / Fold change /veh SPINT1 (11716480_a_at) / RFU GAP43 (11754022_s_at) / Fold change /veh GAP43 (11754022_s_at) / RFU A4GNT (11735810_at) / Fold change /veh A4GNT (11735810_at) / RFU PRB3 (11715151_x_at) / Fold change /veh PRB3 (11715151_x_at) / RFU TUBB4B (11761932_at) / Fold change /veh TUBB4B (11761932_at) / RFU CAPN14 (11732068_a_at) / Fold change /veh CAPN14 (11732068_a_at) / RFU TMCC2 (11721928_a_at) / Fold change /veh TMCC2 (11721928_a_at) / RFU IRGQ (11745062_a_at) / Fold change /veh IRGQ (11745062_a_at) / RFU FAM174B (11720279_a_at) / Fold change /veh FAM174B (11720279_a_at) / RFU TMPRSS4 (11748680_a_at) / Fold change /veh TMPRSS4 (11748680_a_at) / RFU FAM212B (11763350_a_at) / Fold change /veh FAM212B (11763350_a_at) / RFU PLEKHG5 (11743358_a_at) / Fold change /veh PLEKHG5 (11743358_a_at) / RFU ZSCAN30 (11745921_a_at) / Fold change /veh ZSCAN30 (11745921_a_at) / RFU CMKLR1 (11741424_a_at) / Fold change /veh CMKLR1 (11741424_a_at) / RFU LOC101060620 /// MAPK8IP1 (11723275_at) / Fold change /veh LOC101060620 /// MAPK8IP1 (11723275_at) / RFU SPTSSB (11747773_x_at) / Fold change /veh SPTSSB (11747773_x_at) / RFU PRSS12 (11739890_at) / Fold change /veh PRSS12 (11739890_at) / RFU BIN1 (11741810_x_at) / Fold change /veh BIN1 (11741810_x_at) / RFU WNT11 (11732464_a_at) / Fold change /veh WNT11 (11732464_a_at) / RFU C10orf10 (11716521_a_at) / Fold change /veh C10orf10 (11716521_a_at) / RFU C5orf56 (11738089_at) / Fold change /veh C5orf56 (11738089_at) / RFU CYB561 (11721691_x_at) / Fold change /veh CYB561 (11721691_x_at) / RFU ANKRD19P (11752326_a_at) / Fold change /veh ANKRD19P (11752326_a_at) / RFU OR2T12 /// OR2T33 /// OR2T8 (11738714_s_at) / Fold change /veh OR2T12 /// OR2T33 /// OR2T8 (11738714_s_at) / RFU VCAN (11748164_a_at) / Fold change /veh VCAN (11748164_a_at) / RFU JSRP1 (11732532_at) / Fold change /veh JSRP1 (11732532_at) / RFU KRTAP10-11 (11738290_x_at) / Fold change /veh KRTAP10-11 (11738290_x_at) / RFU MYO3A (11730013_a_at) / Fold change /veh MYO3A (11730013_a_at) / RFU EBF3 (11725865_a_at) / Fold change /veh EBF3 (11725865_a_at) / RFU CAMK2N1 (11719241_x_at) / Fold change /veh CAMK2N1 (11719241_x_at) / RFU C5orf56 (11738088_a_at) / Fold change /veh C5orf56 (11738088_a_at) / RFU OLFML3 (11715873_a_at) / Fold change /veh OLFML3 (11715873_a_at) / RFU LOC100653217 /// NTM (11731650_a_at) / Fold change /veh LOC100653217 /// NTM (11731650_a_at) / RFU MAPK11 (11762145_a_at) / Fold change /veh MAPK11 (11762145_a_at) / RFU FIZ1 (11724087_x_at) / Fold change /veh FIZ1 (11724087_x_at) / RFU OASL (11726364_x_at) / Fold change /veh OASL (11726364_x_at) / RFU SOX15 (11748057_x_at) / Fold change /veh SOX15 (11748057_x_at) / RFU CD79A (11719716_a_at) / Fold change /veh CD79A (11719716_a_at) / RFU HIST1H1D (11736915_at) / Fold change /veh HIST1H1D (11736915_at) / RFU CASKIN2 (11723855_a_at) / Fold change /veh CASKIN2 (11723855_a_at) / RFU LOC730098 (11760151_x_at) / Fold change /veh LOC730098 (11760151_x_at) / RFU OR4N2 (11742367_at) / Fold change /veh OR4N2 (11742367_at) / RFU PRRT2 (11749266_a_at) / Fold change /veh PRRT2 (11749266_a_at) / RFU SNX32 (11753110_a_at) / Fold change /veh SNX32 (11753110_a_at) / RFU CDHR5 (11726645_a_at) / Fold change /veh CDHR5 (11726645_a_at) / RFU RCAN1 (11760418_a_at) / Fold change /veh RCAN1 (11760418_a_at) / RFU FAM167A (11723789_a_at) / Fold change /veh FAM167A (11723789_a_at) / RFU FAM26E (11764081_at) / Fold change /veh FAM26E (11764081_at) / RFU ISYNA1 (11749810_s_at) / Fold change /veh ISYNA1 (11749810_s_at) / RFU ACY1 (11761880_at) / Fold change /veh ACY1 (11761880_at) / RFU 11764098_at / Fold change /veh 11764098_at / RFU SAMD14 (11745864_x_at) / Fold change /veh SAMD14 (11745864_x_at) / RFU NPB (11741838_a_at) / Fold change /veh NPB (11741838_a_at) / RFU TMPRSS6 (11731388_a_at) / Fold change /veh TMPRSS6 (11731388_a_at) / RFU KRTAP10-2 (11738614_at) / Fold change /veh KRTAP10-2 (11738614_at) / RFU ARHGAP8 /// PRR5-ARHGAP8 (11727945_x_at) / Fold change /veh ARHGAP8 /// PRR5-ARHGAP8 (11727945_x_at) / RFU KRTAP5-7 /// NADSYN1 (11734609_at) / Fold change /veh KRTAP5-7 /// NADSYN1 (11734609_at) / RFU RASL12 (11751679_a_at) / Fold change /veh RASL12 (11751679_a_at) / RFU CDKN2B (11736163_a_at) / Fold change /veh CDKN2B (11736163_a_at) / RFU PRF1 (11729649_at) / Fold change /veh PRF1 (11729649_at) / RFU, ZNF638 /// ZNF638-IT1 / Fold change vs veh, ZNF638 /// ZNF638-IT1 / RFU, PANK3 / Fold change vs veh, PANK3 / RFU, SH3YL1 / Fold change vs veh, SH3YL1 / RFU, ZEB2 / Fold change vs veh, ZEB2 / RFU, NRIP1 / Fold change vs veh, NRIP1 / RFU, PTTG1IP / Fold change vs veh, PTTG1IP / RFU, CAPN2 / Fold change vs veh, CAPN2 / RFU, MED14 / Fold change vs veh, MED14 / RFU, SNORA58 / Fold change vs veh, SNORA58 / RFU, C1orf63 / Fold change vs veh, C1orf63 / RFU, LRRFIP1 / Fold change vs veh, LRRFIP1 / RFU, NDUFAF7 / Fold change vs veh, NDUFAF7 / RFU, SLC12A2 / Fold change vs veh, SLC12A2 / RFU, IBTK / Fold change vs veh, IBTK / RFU, ESF1 / Fold change vs veh, ESF1 / Fold change vs veh, TMEM50B / RFU, TAOK1 / Fold change vs veh, TAOK1 / RFU, ACBD3 / Fold change vs veh, ACBD3 / RFU, TMA16 / Fold change vs veh, TMA16 / RFU, RWDD3 / Fold change vs veh, RWDD3 / RFU, BCAT1 / Fold change vs veh, BCAT1 / RFU, EDEM3 / Fold change vs veh, EDEM3 / RFU, TMEM33 / Fold change vs veh, TMEM33 / RFU, WDR75 / Fold change vs veh, WDR75 / RFU, AHCTF1 / Fold change vs veh, AHCTF1 / RFU, TFRC / Fold change vs veh, TFRC / RFU, ZDHHC17 / Fold change vs veh, ZDHHC17 / RFU, NOM1 / Fold change vs veh, NOM1 / RFU, ARL8B / Fold change vs veh, ARL8B / RFU, ZBTB11 / Fold change vs veh, ZBTB11 / RFU, TAMM41 / Fold change vs veh, TAMM41 / RFU, KIAA1704 /// LOC100996395 / Fold change vs veh, KIAA1704 /// LOC100996395 / RFU, ING1 / Fold change vs veh, ING1 / RFU, TRMT61B / Fold change vs veh, TRMT61B / RFU, FUBP3 / Fold change vs veh, FUBP3 / RFU, TP53 / Fold change vs veh, TP53 / RFU, TNKS2 / Fold change vs veh, TNKS2 / RFU, ZFP14 / Fold change vs veh, ZFP14 / RFU, ACTR2 / Fold change vs veh, ACTR2 / RFU, PPP3R1 / Fold change vs veh, PPP3R1 / RFU, PIK3R1 / Fold change vs veh, PIK3R1 / RFU, HNRNPA1 / Fold change vs veh, HNRNPA1 / RFU, RNF170 / Fold change vs veh, RNF170 / RFU, ZNF28 / Fold change vs veh, ZNF28 / RFU, RNGTT / Fold change vs veh, RNGTT / RFU, OGT / Fold change vs veh, OGT / RFU, BRD1 / Fold change vs veh, BRD1 / RFU, MARS / Fold change vs veh, MARS / RFU, ZNF655 / Fold change vs veh, ZNF655 / RFU, FAHD1 / Fold change vs veh, FAHD1 / RFU, BDP1 / Fold change vs veh, BDP1 / RFU, LRRCC1 / Fold change vs veh, LRRCC1 / RFU, ARID1A / Fold change vs veh, ARID1A / RFU, ZNF146 / Fold change vs veh, ZNF146 / RFU, ZNF330 / Fold change vs veh, ZNF330 / RFU, GPN3 / Fold change vs veh, GPN3 / RFU, C9orf123 / Fold change vs veh, C9orf123 / RFU, N4BP2L2 / Fold change vs veh, N4BP2L2 / RFU, ARFIP1 / Fold change vs veh, ARFIP1 / RFU, FAM179B / Fold change vs veh, FAM179B / RFU, BCL10 / Fold change vs veh, BCL10 / RFU, UHRF1BP1L / Fold change vs veh, UHRF1BP1L / RFU, BET1 / Fold change vs veh, BET1 / RFU, CNOT2 / Fold change vs veh, CNOT2 / RFU, ZNF268 / Fold change vs veh, ZNF268 / Fold change vs veh, ZNF507 / RFU, DGCR2 / Fold change vs veh, DGCR2 / RFU, WDSUB1 / Fold change vs veh, WDSUB1 / Fold change vs veh, HSP90B1 /// MIR3652 / RFU, ADSS / Fold change vs veh, ADSS / RFU, GK / Fold change vs veh, GK / RFU, ZNF148 / Fold change vs veh, ZNF148 / RFU, TAF9 / Fold change vs veh, TAF9 / RFU, SLC1A5 / Fold change vs veh, SLC1A5 / RFU, SLMO2 / Fold change vs veh, SLMO2 / RFU, ABCC4 / Fold change vs veh, ABCC4 / RFU, LOC101060439 /// RAP1B / Fold change vs veh, LOC101060439 /// RAP1B / RFU, RFX7 / Fold change vs veh, RFX7 / RFU, GTPBP10 / Fold change vs veh, GTPBP10 / RFU, CNEP1R1 / Fold change vs veh, CNEP1R1 / RFU, BIVM-ERCC5 /// ERCC5 / Fold change vs veh, BIVM-ERCC5 /// ERCC5 / RFU, ILF3 / Fold change vs veh, ILF3 / RFU 11762660_at / Fold change /veh 11762660_at / RFU VCAN (11757783_s_at) / Fold change /veh VCAN (11757783_s_at) / RFU DDX43 (11728927_at) / Fold change /veh DDX43 (11728927_at) / RFU KRT8 (11758188_x_at) / Fold change /veh KRT8 (11758188_x_at) / RFU NKD1 (11759106_at) / Fold change /veh NKD1 (11759106_at) / RFU SRD5A1 (11742802_a_at) / Fold change /veh SRD5A1 (11742802_a_at) / RFU TPSAB1 /// TPSB2 (11721975_s_at) / Fold change /veh TPSAB1 /// TPSB2 (11721975_s_at) / RFU GSTM3 (11746129_a_at) / Fold change /veh GSTM3 (11746129_a_at) / RFU IL23R (11737362_x_at) / Fold change /veh IL23R (11737362_x_at) / RFU TMEM51 (11727254_a_at) / Fold change /veh TMEM51 (11727254_a_at) / RFU PIWIL2 (11732686_x_at) / Fold change /veh PIWIL2 (11732686_x_at) / RFU ORM1 (11744905_x_at) / Fold change /veh ORM1 (11744905_x_at) / RFU CCDC152 (11743942_at) / Fold change /veh CCDC152 (11743942_at) / RFU ECM1 (11717891_a_at) / Fold change /veh ECM1 (11717891_a_at) / RFU IL23R (11748794_a_at) / Fold change /veh IL23R (11748794_a_at) / RFU TNFAIP8L3 (11732012_x_at) / Fold change /veh TNFAIP8L3 (11732012_x_at) / RFU MBOAT4 (11741988_at) / Fold change /veh MBOAT4 (11741988_at) / RFU 11764193_at / Fold change /veh 11764193_at / RFU TMEM53 (11763286_at) / Fold change /veh TMEM53 (11763286_at) / RFU MAGEB2 (11727129_at) / Fold change /veh MAGEB2 (11727129_at) / RFU TMEM200A (11744735_a_at) / Fold change /veh TMEM200A (11744735_a_at) / RFU CCDC152 (11751479_a_at) / Fold change /veh CCDC152 (11751479_a_at) / RFU FAM211A (11726209_a_at) / Fold change /veh FAM211A (11726209_a_at) / RFU RGS16 (11746705_a_at) / Fold change /veh RGS16 (11746705_a_at) / RFU VCAN (11755009_s_at) / Fold change /veh VCAN (11755009_s_at) / RFU RHOB (11743442_s_at) / Fold change /veh RHOB (11743442_s_at) / RFU RGS16 (11720943_a_at) / Fold change /veh RGS16 (11720943_a_at) / RFU RGS16 (11720944_at) / Fold change /veh RGS16 (11720944_at) / RFU, VPS4B / Fold change vs veh, VPS4B / RFU, CREB1 / Fold change vs veh, CREB1 / RFU, DNAJC13 / Fold change vs veh, DNAJC13 / RFU, GNAQ / Fold change vs veh, GNAQ / RFU, CDK5R1 / Fold change vs veh, CDK5R1 / RFU, ZRANB3 / Fold change vs veh, ZRANB3 / RFU, CUL4A / Fold change vs veh, CUL4A / RFU, CCNY / Fold change vs veh, CCNY / RFU, UFL1 / Fold change vs veh, UFL1 / RFU, COG3 / Fold change vs veh, COG3 / RFU, DIAPH2 / Fold change vs veh, DIAPH2 / RFU, SKA2 / Fold change vs veh, SKA2 / RFU, AFF3 / Fold change vs veh, AFF3 / RFU, LMF1 / Fold change vs veh, LMF1 / RFU, IPO11 / Fold change vs veh, IPO11 / RFU, DFFB / Fold change vs veh, DFFB / RFU, FOXP1 / Fold change vs veh, FOXP1 / RFU, CARD8 / Fold change vs veh, CARD8 / RFU, STRN3 / Fold change vs veh, STRN3 / RFU, ADK / Fold change vs veh, ADK / RFU, RASSF2 / Fold change vs veh, RASSF2 / RFU, WIPF1 / Fold change vs veh, WIPF1 / RFU, LARP1B / Fold change vs veh, LARP1B / RFU, RASA1 / Fold change vs veh, RASA1 / RFU, RB1 / Fold change vs veh, RB1 / RFU, PPFIA1 / Fold change vs veh, PPFIA1 / RFU, MAT2A / Fold change vs veh, MAT2A / RFU, CCT5 / Fold change vs veh, CCT5 / RFU, WDR92 / Fold change vs veh, WDR92 / RFU, CUX1 / Fold change vs veh, CUX1 / RFU, TTC7A / Fold change vs veh, TTC7A / RFU, TMEM135 / Fold change vs veh, TMEM135 / RFU, DEPTOR / Fold change vs veh, DEPTOR / RFU, CPM / Fold change vs veh, CPM / RFU, DNAJB6 / Fold change vs veh, DNAJB6 / RFU, CACNA2D3 / Fold change vs veh, CACNA2D3 / RFU, DTX4 / Fold change vs veh, DTX4 / RFU, TFCP2 / Fold change vs veh, TFCP2 / RFU, GMCL1 /// GMCL1P1 / Fold change vs veh, GMCL1 /// GMCL1P1 / RFU, AEBP2 / Fold change vs veh, AEBP2 / RFU, SNHG1 /// SNORD22 /// SNORD25 /// SNORD26 /// SNORD27 /// SNORD28 /// SNORD29 /// SNORD31 / Fold change vs veh, SNHG1 /// SNORD22 /// SNORD25 /// SNORD26 /// SNORD27 /// SNORD28 /// SNORD29 /// SNORD31 / Fold change (Aza/veh), C12orf56 (ProbeSet 11735607_a_at) / Fold change (ACY-1035/veh), C12orf56 (ProbeSet 11735607_a_at) / Fold change (Aza/veh), FGFR1OP (ProbeSet 11751329_s_at) / Fold change (ACY-1035/veh), FGFR1OP (ProbeSet 11751329_s_at) / Fold change (Aza/veh), VPS36 (ProbeSet 11739960_a_at) / Fold change (ACY-1035/veh), VPS36 (ProbeSet 11739960_a_at) / RFU SYPL1 (11715823_x_at) / Fold change /veh SYPL1 (11715823_x_at) / RFU IGFBP7 (11715501_s_at) / Fold change /veh IGFBP7 (11715501_s_at) / RFU REEP3 (11722064_at) / Fold change /veh REEP3 (11722064_at) / RFU IGLL1 (11728026_x_at) / Fold change /veh IGLL1 (11728026_x_at): dose or concentration left out as unconfirmed
Details: MV-4-11 cells, 48 hours

## Nc1ncn([C@@H]2O[C@H](CO)[C@@H](O)[C@H]2O)c(=O)n1 [azacitidine]
  Fold change /veh TMEM200A (11744735_a_at): 1.56
